# Key:
# [1] = test system: non-infected cells; experiment: MTT toxicity/killing of non-infected cells (Biomek 1000); type: cell-based
# Protocol: The KE37-1 (uninfected) and KE37-1/111β (infected) cell lines discussed below are commercially available from the Dr. Robert Gallows Laboratory of the NIH in the United States of America and grown in a medium of RPMI 1640 (GIBCO) and further supplemented with 10% fetal calf serum which contained approximately 100 units of penicillin, 100 μg streptomycin, and approximately 0.25 μg fungizone (Amphotericin B) per milliliter. The human mesenchymal cell lines LC5 and LC5-HIV, discussed below, are deposited with the Collection De L'Institut Pasteur of Paris, France on Mar. 9, 1989 and given the accession numbers I-842 and I-843, respectively. […]
# In the present series of experiments HIV release was tested by a fully automated laboratory robot system and which is manufactured by Beckman Instruments as the Biomek 1000. […] The number of living cells are quantified by MTT, that is by a metabolic (dehydrogenase) test. […] The toxic effect is detected at the time of the experiment and not in a separate control experiment. Furthermore, the supernatant, and which contains released virus cells from the period of time which elapsed from the last wash, and which may vary from 24 hours to 7 days, is collected from the culture, and an aliquot is saved for virus quantification by employing antigen or viral enzyme reverse transcriptase (RT). […]
# [2] = test system: phospholipase A2; conditions: anterior pituitary; cited from earlier work
# [3] = blood serum levels of melittin after injection; type: in vivo, cats
# Protocol: During the experiment it was determined that detectable blood serum levels of melittin (Seq. ID NO:1) of about 5 ng/ml could be detected following an injection of melittin equal to […] a few minutes after injection. […] In vitro data has shown that melittin, after this time interval, is found within the cells where it can be detected in tact for more than 48 hours. The LD50 (lethal dose where 50% of the animals perish) for melittin is not known for cats. In the present experiment, both cats M and G were treated twice weekly with subcutaneous injections over a period of eight weeks. During the first three weeks, each cat received increasing dosages of melittin (Seq. ID NO:1) beginning with a 50 mg/kg bodyweight injection, followed by injections of 100 mg/kg, and then escalating to 150, 225, 375 and 500 mg/kg at the sixth injection. Upon reaching this level, the melittin was administered in a constant dosage of 500 mg/kg twice weekly, for the remaining five weeks. […] The quantitative effect of melittin on FIV replication was determined quantitatively by utilizing FIV-PCR employing nested primers from the gag region. Quantification was based upon the determination of amplified product in identical samples which have been amplified after different cycle times. This is best seen by reference to FIG. 47A. Furthermore, each of the cats were clinically investigated in detail. […]
# [4] = test system: cell free HIV; experiment: influence of melittin on cell free HIV (P24 determination, infectivity); conditions: incubation of cell free HIV
substance,measurement,setting,value
Gly-Ile-Gly-Ala-Val-Leu-Lys-Val-Leu-Thr-Thr-Gly-Leu-Pro-Ala-Leu-Ile-Ser-Trp-Ile-Lys-Arg-Lys-Arg-Gln-Gln-Amide [melittin],critical concentration at which all non-infected cells were killed,[1],10 μg per ml
same,effect on phospholipase A2,[2],stimulates endogenous phospholipase A2 in the anterior pituitary leading to growth hormone secretion
same,disappearance from the serum,[3]; in vivo,disappears quickly from the serum
same,detectable blood serum levels,"[3]; injection equal to 200 mg/kg, a few minutes after injection",about 5 ng/ml
same,detection of the P24 antigen,[4],does not impair the detection of the P24 antigen
same,virus infectivity of cell free HIV,[4],cause the virus infectivity to be reduced

# Source: patent US5770688A, “Method and composition for the treatment of mammalian HIV infection” (GSF-Forschungszentrum fur Umwelt und Gesundheit GmbH, priority 1989, dated 1998)
